Compound | melting point [°C]
CC(CN(C)C)CN1c2ccccc2Sc2ccccc21 (stereo unspecified) | 68
COC(=O)c1cc2ccsc2[nH]1 | 127 to 129
FC(F)C(F)F | -89
Cc1ccc(Sc2ccc(C=O)cc2[N+](=O)[O-])cc1 | 138 to 141
CCCCCCCCCCCCCCCCN | 46.8
CCCCCCCCCCc1cc(-c2cc(-c3ccccc3)c3ccccc3n2)sc1-c1sc(-c2cc(-c3ccccc3)c3ccccc3n2)cc1CCCCCCCCCC | 21.9
Cc1ccc(Br)c([N+](=O)[O-])c1 | 31
O=C(O)CN(CCO)CCO | 190 to 192
CCOC(=O)C1=C(N)Oc2ccc(Br)cc2C1C(C#N)C(=O)OCC (stereo unspecified) | 105 to 108
Clc1ccc(-c2cc[nH]n2)cc1 | 80 to 84
CC1(C)CC(=O)OC(=O)C1 | 122 to 126
Brc1cccc(COc2ccccc2)c1 | 38 to 39
Cc1nc(O)cc(O)n1 | 360
FC(F)(F)c1cc(Cl)c2cc(CBr)ccc2n1 | 119 to 123
Cc1ccccc1CN | -30
Cc1cc(C)c2c(c1)CC2(C)O (stereo unspecified) | 58
COc1ccccc1C1Nn2c(nnc2-c2ccccc2)S1 (stereo unspecified) | 196
O=C1[C@H]2CC3=C(CC=CC3)C[C@H]2C(=O)[C@H]2CC3=C(CC=CC3)C[C@@H]12 | 300 to 302
NNS(=O)(=O)c1ccc(-c2ccccn2)s1 | 109 to 111
ClCOCCl | -41.5
COC(=O)/C(=C/c1ccc([N+](=O)[O-])cc1)c1ccccc1C(=O)OC | 121 to 122
COc1cc(OC)nc(Sc2cccc3c2C(=O)OC3C)n1 (stereo unspecified) | 163

Compound | melting point [°C]
C=C1C(=O)C23C(OC(C)=O)CC4C(C)(C)CCCC4(COC(C)=O)C2C(OC(C)=O)CC1C3OC(C)=O (stereo unspecified) | 226
COc1ccc(C(=O)C=Cc2ccccc2)c(O)c1 | 106 to 108
COc1ccc(-c2oc3c(C)c(OC)cc(OC)c3c(=O)c2C)cc1OC | 217
Nc1c(S/C=C/Cl)ccc2c1C(=O)c1ccccc1C2=O | 180
Clc1cc(Cl)c2ccccc2c1 | 62.3
Nc1c(F)c(F)c(-c2c(F)c(F)c(N)c(F)c2F)c(F)c1F | 175 to 179
Cc1c(C(=O)Cl)oc2ccccc12 | 70 to 74
N=C(N)NC(N)=S | 172
BrCc1ccc(-c2ccsc2)cc1 | 107 to 109
NS(=O)(=O)c1cc(Cl)c(Cl)c(S(N)(=O)=O)c1 | 229
Nc1ccc(N=Nc2ccc([N+](=O)[O-])cc2)cc1 | 215
O=C1OC(=O)C2=C1SCCS2 | 213 to 214
Cc1ccc(C2(C(=O)O)CCCC2)cc1 | 181 to 184
Cc1cc(CCl)c(CCl)cc1C | 104 to 106
Cc1ccn2nc(S(=O)(=O)Nc3c(F)cccc3F)nc2n1 | 252
O=C1CCC(c2ccc(NC(=O)CCl)cc2)=NN1 | 220 to 223
Clc1cccc(Cl)c1N=C1NCCN1 | 130
O=[N+]([O-])c1cccc(F)c1O | 92.5
Brc1cc(Br)c(Oc2c(Br)c(Br)c(Br)c(Br)c2Br)cc1Br | 200
O=C(N=NC(=O)N1CCCCC1)N1CCCCC1 | 135
CC(=O)c1ccccc1O | 5
Cc1cc2nsnc2cc1Cl | 85 to 86

Compound | melting point [°C]
C=CCCCCCCCCC(=O)OCC | -38
CC1(C)c2ccccc2Oc2ccccc21 | 41.5
C#CCO | -51.8
C=CCNC(SC)=C(C#N)C#N | 91
Cc1cc(-c2cc(C)c(N)c(C)c2)cc(C)c1N | 170
O=C(O)CNC(=O)CCl | 102
COC(=O)c1ccc(N)c(Br)c1 | 104 to 108
Cc1c(C)c(C)c(Br)c(Br)c1C | 72
CNC=O | -3.2
CCC(/C(=N/Nc1ccc([N+](=O)[O-])cc1[N+](=O)[O-])c1ccc(OC)cc1)C1CCCCC1 (stereo unspecified) | 200 to 201
O=C1OC(c2ccccc2)=N/C1=C\c1cccc(/C=C2\N=C(c3ccccc3)OC2=O)c1 | 247
CCOc1ccc(N=C=S)cc1 | 60 to 61
CCCOc1ccc(C(=O)O)cc1 | 145
CNCc1ccc(N2CCOCC2)s1 | 38 to 39
FC(F)(F)C(Cl)Br (stereo unspecified) | -118
C=CCSc1nc(C)n[nH]1 | 88 to 90
O/N=C1\C(c2ccccc2)=Nc2ccccc21 | 260
CC(=NNc1ccccc1)C(=O)c1cc(C(=O)C(C)=NNc2ccccc2)c([N+](=O)[O-])cc1[N+](=O)[O-] | 234
CNC(=O)Oc1cc(C)c(N(C)C)c(C)c1 | 85
O=C1NC(=O)c2cc([N+](=O)[O-])ccc21 | 206
O=C(O)c1cn2ccsc2n1 | 233 to 234
CN(C)c1ccc(N=c2cc(-c3ccccc3)cc(-c3ccccc3)s2)cc1 | 148

Compound | melting point [°C]
OCCOc1ccc(OCCO)cc1 | 104 to 107
CCCC(CCC)C(N)=O | 125
CC(=O)Oc1cccc2c1C(=O)c1c(OC(C)=O)cc(C(=O)O)cc1C2=O | 218
CC(=O)Nc1ccc(C=CC(=O)c2ccccc2)cc1 | 179
CCCCCCCCCCCCCCCC(C)CC (stereo unspecified) | 1
NC(=O)c1cnc2ccccc2n1 | 195
O=[N+]([O-])c1ccccc1Nc1ccccc1 | 75
NC(CSc1ccccn1)=NO | 100
CSc1nn(-c2ccccc2)cc1C(N)=S | 130 to 133
CN(CC(=O)O)CC(=O)O | 218 to 221
COc1c(Cl)c(Cl)c(Cl)c(Cl)c1OC | 90
CC1(C)C2CCC1(C)C(NC(=O)c1ccccc1)C2NC(=O)c1ccccc1 (stereo unspecified) | 148
Cc1nn(C)c(OCC(=O)c2ccccc2)c1C(=O)c1ccc(Cl)cc1Cl | 112
CN(C)c1ccc(N=O)cc1 | 92.5
COc1ccc(C)c(C(=O)O)c1 | 147
O=Cc1nc2ccccc2c2ncccc12 | 144 to 145
COC(=O)CCCCCC(=O)OC | -21
C=C(C)CCCCCCCCCCCCC | -7
COC1=CC(C)C2CC3OC(O)CC4C(C)=C(OC)C(=O)C(C2(C)C1=O)C34C (stereo unspecified) | 227
O=C1CSC(c2cccs2)C1 (stereo unspecified) | 55 to 58
O=C1c2ccccc2N(C(=O)CN2CCOCC2)CN1c1ccccc1 | 136
Cc1ccc2oc(C(=O)O)cc(=O)c2c1 | 267 to 270

Compound | melting point [°C]
CO[C@]12C(=O)CCc3cccc(c31)Oc1ccc3ccccc3c12 | 154
CC1=CC(=O)CCC1 | -21
C=C1CCC2OC2(C)CCC2C1CC2(C)C (single isomer, unassigned; (-)) | 62.5
C=C[Si](c1ccccc1)(c1ccccc1)c1ccccc1 | 63 to 70
O=C(OCc1ccccc1)c1ccc(O)cc1 | 112
CCCCCCCCC(=O)OCCCCC | -27
CCOC(=O)CCC(C)C1CCC2C3C=CC4CC(OC(C)=O)CCC4(C)C3CC(OC(C)=O)C12C (stereo unspecified) | 83 to 84
CCCCCSC | -94
O=S(=O)(CCl)c1ccccc1 | 54
COc1ccc(OC)c2ccccc12 | 85 to 86
CCOC(=O)c1cc2c(=O)oc3ccccc3c2[nH]c1=O | 313 to 315
CCOC(=O)c1sc(C2CCN(C(=O)OC(C)(C)C)CC2)nc1C | 47
O=C(CBr)c1ccc(Oc2ccccc2)cc1 | 49 to 50
C#CC(C)(C)NC(=O)c1cc(Cl)cc(Cl)c1 | 156
CN(C)CCCCN(C)C | -100
C[Si]1(C)N[Si](C)(C)N[Si](C)(C)N1 | -10
CCOC(=O)c1cc(I)c(N)c(I)c1 | 145 to 146
Cc1cc(C)nc(Nc2ccccc2)n1 | 96.3
Brc1ccc2c(c1)Oc1cc(Br)ccc1O2 | 145
Nc1ccccc1-n1ccnc1 | 106 to 107
N#Cc1ccc(N2CCC(C(=O)NN)CC2)cc1 | 198 to 202
Oc1cccc(F)c1F | 36

Compound | melting point [°C]
CCCCCCCCCCCCOc1ccc(C=O)cc1 | 28
N#C/C(=N\Nc1cccc(C(=O)O)c1)c1nc2ccccc2s1 | 200
CC12CCC(C(C(=O)c3ccccc3)C1=O)C2(C)C (stereo unspecified) | 98
O=C(O)c1cccc(O)c1[N+](=O)[O-] | 179
O=C(CCl)c1ccc(Cl)c(Cl)c1 | 44
CCC#CCCCCC(=O)O | 14
O=C(NCCCC[C@H](NC(=O)OCc1ccccc1)C(=O)O)OCC1c2ccccc2-c2ccccc21 | 101 to 105
CC(=O)c1cc(-c2ccc(Cl)c(Cl)c2)no1 | 130 to 132
COc1ccc2c(c1)CC1(CCC(c3ccc(C(C)(C)C)cc3)CC1)C2=O (stereo unspecified) | 166 to 167
Cc1ccc2nc(-c3ccc(N)cc3)sc2c1 | 195
O=C(O)c1ccc2c(c1)OCCO2 | 133 to 137
NC(=O)NN=C(O)/C=C/c1ccccc1 | 197 to 198
O=S(=O)(Cl)Cc1ccc(Cl)c(Cl)c1 | 65 to 68
CCC(=O)C(=O)CC | -10
Brc1cc(Br)c(Oc2c(Br)cc(Br)c(Br)c2Br)c(Br)c1Br | 206
NS(=O)(=O)c1ccc(Cl)c(S(N)(=O)=O)c1 | 207
NNC(=O)c1ccc(-c2ccccc2F)cc1 | 153 to 155
CC(=O)c1cc(C(C)=O)c(N)cc1N | 235
COC1=C(OC)/C(=C/C2CCC=CC23OC(=O)C(OC)=C3OC)OC1=O (stereo unspecified) | 118 to 120
C=CC=CC(=O)O | 79
CCCCCCCCC=CCCCCCCCCO | 6

Reference: a melting point compilation (Tetko et al.)
